Measured values published in US9273038B2, “Solid forms of an ion channel modulator” (Gilead Sciences, Inc., priority 2014, dated 2016).
Values after ≈ are worked out from the molar mass of the structure shown. Like-named read-outs stand apart in the source and are kept apart here.

Columns and labels:
[1] = Stable hydrate screen in methanol/water: solubility by TGA; format: physicochemical
Procedure: Since the hydrate screens from aqueous mixtures of ethanol and isopropyl alcohol were performed in a fairly narrow range of water activity (Aw≧0.8), it was desirable to determine the outcome over a wider range of water activities. An attempt was made to explore this using a system of methanol and water (Table 10). Form I was used as the starting material. […] At and above this Aw only Form I was found.

[2] = Hydrate screen in ethanol/water and isopropanol/water: solubility and relative form stability; format: physicochemical; conditions: for Solubility: 5 days, started from Form I
Procedure: A hydrate screen starting from Form I was also conducted to evaluate whether hydrates of Compound I exist. The hydrate screen was conducted in ethanol/water (Table 6) and isopropanol/water (Table 7) mixtures, and in both cases, a new polymorph of Compound I was discovered (denoted as Form III).
From the initial hydrate screens presented in Table 6 and Table 7 no apparent trends were observed. In this case, all slurries of Form I in EtOH/water or IPA/water mixtures remained unchanged after 2 weeks (Table 8 and Table 9). Since Form III has been observed previously under the same conditions, it was suspected that the lack of form conversion is mainly due to slow kinetics. […] Attempts to determine the relative stability between Forms I and III at lower water activities were unsuccessful since Form I either was too soluble or oiled out at water activities of 0.8 or below.

[3] = Determination of transition temperature between Forms I and II (slurries at 35 and 38° C., pXRD); format: physicochemical; conditions: slurries with and without Form II seeds, iPrOAc/n-heptane
Procedure: […] describes the set of experiments which concluded that Form I and II are enantiotropic forms and determined the transition temperature. Slurries of Form I with and without Form II seeds were stirred at 35° C. and 38° C. and samples were removed periodically for pXRD analysis. For slurries of Form I aged at 35° C., Form I dominated regardless of whether Form II seeds were present (albeit when Form II seeds were present, the full conversion to Form I took about 5 days) (Table 4). In contrast, slurries of Form I at 38° C. in the presence of Form II seeds rapidly turned over to Form II within 1 day and remained Form II even after the slurry was cooled to 20° C. for isolation. When no Form II seeds were present, Form I slurries remained unchanged even when aged at 38° C.

[4] = Extended stable form screen starting from Form II: solubility of filtrate by TGA; format: physicochemical; conditions: suspension of the solid in solvent, filtrate analysed, 21 °C, organic solvent or mixture, thermodynamic from solid, about 21° C.
Procedure: These experiments were performed at about 21° C. starting from Form II. After about 3 to 6 days in suspension two experiments produced full conversion from Form II to Form I; one became biphasic; and the rest remained Form II (FIG. 43). Three of the filtrates obtained from isolating the solid phase from samples became biphasic before the solubility could be measured by TGA.
After about 8 to 11 days in suspension the distribution of forms remained unchanged (FIG. 44). All of the filtrates except one became biphasic before solubility could be measured by TGA.

[5] = Dynamic vapor sorption (DVS) analysis; format: physicochemical; conditions: for Relative humidity of deliquescence (DVS): mono sulfate
Procedure: The solids with unique XRPD patterns were characterized by DSC, TGA, ^1H NMR, KF and DVS. All XRPD patterns were obtained in the experimental setting as follows: 45 kV, 40 mA, Kα1=1.5406 Å, scan range 2 to 40°, step size 0.0167°, counting time: 15.24 s. DSC and TGA analyses were performed using 10° C./min heating rate over the 20 to 350° C. temperature range.

[6] = Dissolution test of Compound I Form VII in DI water; format: physicochemical; conditions: about 8 mg in 0.5 mL DI water; stirred overnight at room temperature; solid found: free base Form I
Procedure: A dissolution test of Compound I Form VII (about 8 mg) and 0.5 mL of DI water was performed. The solids were almost completely dissolved at first, and then more solids precipitated out. The slurry was allowed to be stirred overnight at room temperature before XRPD and ^1H NMR analyses, which confirm Compound I free base (Form I).

[7] = Relative stability of Compound I Forms XIV and XV (seeding, heating at about 130° C., XRPD); format: physicochemical; conditions: seeding experiments; Form XV heated at about 130° C. for about 10 minutes gave Form XIV
Procedure: In another experiment, Compound I FORM XV was heated at about 130° C. for about 10 minutes and cooled to about 21° C. prior to XRPD analysis.

[8] = test system: late sodium current (INaL); conditions: as described in WO 2013/006485; cited from earlier work
[9] = Stable form screen: solubility in single and binary solvents (HPLC, external standard); format: physicochemical
Procedure: In order to determine whether other polymorphs of Compound I exist, a stable form screen was conducted. […] As a result, slurries were typically produced in non-polar solvents. Table 1). Slurries were also generated in solvent combinations with n-heptane (Table 2) and cyclohexane (Table 3). In cases where a slurry was formed, Form I was isolated after agitation for 1 day and 3 weeks.

pKa = format: physicochemical

For `O=C1c2cc(-c3ccc(OC(F)(F)F)cc3)ccc2OCCN1Cc1ncccn1` [Compound I Form I, 4-(pyrimidin-2-ylmethyl)-7-(4-(trifluoromethoxy)phenyl)-3,4-dihydrobenzo[f][1,4]oxazepin-5(2H)-one], the “3 days TGA” value ([1]; Aw 0.6, 3 days) was 14 mg/mL, the “3 days TGA” value ([1]; Aw 0.7, 3 days) was 4.5 mg/mL and the “14 days TGA” value ([1]; Aw 0.7, 14 days) was 2 mg/mL. For the same compound, the “3 days TGA” value ([1]; Aw 0.8, 3 days) was 1.4 mg/mL, the “14 days TGA” value ([1]; Aw 0.8, 14 days) was 1 mg/mL and the “3 days TGA” value ([1]; Aw 0.9, 3 days) was 0.5 mg/mL. The “14 days TGA” value ([1]; Aw 0.9, 14 days) was less than 1 mg/mL, the “Solubility (in words)” value ([1]; Aw below 0.6, only solutions present) was “extraordinarily high” and the “Form I Solubility mg/g (2 weeks)” value ([2]; 10% EtOH/water, water activity >0.9) was 0.09 mg/g. The “Form I Solubility mg/g (2 weeks)” value ([2]; 10% IPA/water, water activity >0.9) was 0.10 mg/g, the “Form I Solubility mg/g (2 weeks)” value ([2]; 20% EtOH/water, water activity 0.8-0.9) was 0.10 mg/g and the “Form I Solubility mg/g (2 weeks)” value ([2]; 20% IPA/water, water activity >0.9) was 0.18 mg/g. For the same compound, the “Form I Solubility mg/g (2 weeks)” value ([2]; 25% IPA/water, water activity >0.9) was 0.65 mg/g, the “Form I Solubility mg/g (2 weeks)” value ([2]; 30% EtOH/water, water activity 0.8-0.9) was 0.49 mg/g and the “Form I Solubility mg/g (2 weeks)” value ([2]; 30% IPA/water, water activity >0.9) was 4.7 mg/g. The “Form I Solubility mg/g (2 weeks)” value ([2]; 35% EtOH/water, water activity 0.8-0.9) was 1.3 mg/g and the “Relative stability of Forms I and II (in words)” value ([3]; listed as Form I) was “the more stable form at below 35 °C”.
In the case of `O=C1c2cc(-c3ccc(OC(F)(F)F)cc3)ccc2OCCN1Cc1ncccn1` [Compound I Form II, 4-(pyrimidin-2-ylmethyl)-7-(4-(trifluoromethoxy)phenyl)-3,4-dihydrobenzo[f][1,4]oxazepin-5(2H)-one], the “Relative stability of Forms I and II (in words)” value ([3]; listed as Form II) is reported as “the more stable form at or above 38 °C”, the Solubility ([4]; Ethanol/n-heptane (1/4) v/v, 4-6 days, read-out: 4-6 Days Solubility) is reported as 32 mg/mL (≈ 77 mM) and the Solubility ([4]; MIBK/n-heptane (1/4) v/v, 4-6 days, read-out: 4-6 Days Solubility) is reported as 26 mg/mL (≈ 62.6 mM). The Solubility ([4]; MIBK/n-heptane (1/4) v/v, 8-11 days, read-out: 8-11 Day Solubility) was 35 mg/mL (≈ 84.3 mM) and the Solubility ([4]; THF/n-heptane (1/4) v/v, 4-6 days, read-out: 4-6 Days Solubility) was 29 mg/mL (≈ 69.8 mM).
With `Cc1ccc(S(=O)(=O)O)cc1.O=C1c2cc(-c3ccc(OC(F)(F)F)cc3)ccc2OCCN1Cc1ncccn1` [Compound I Form VII, 4-(pyrimidin-2-ylmethyl)-7-(4-(trifluoromethoxy)phenyl)-3,4-dihydrobenzo[f][1,4]oxazepin-5(2H)-one p-toluenesulfonic acid] the “Hygroscopicity by DVS (in words)” value [5] was “moderately hygroscopic”, the “Moisture uptake at 90% RH (DVS)” value ([5]; 90% RH) was “about 2.75 wt %” and the “Water adsorbed at 90% RH (DVS)” value ([5]; 90% RH) was “about 0.9 molar equivalents”. For the same compound, the “Moisture uptake at 90% RH (DVS)” value ([5]; 90% RH, listed as Form VII) was 2.75 wt % at, the “Hygroscopicity by DVS (in words)” value ([5]; listed as Form VII) was “Moderately” and the “Stability in water (in words)” value [6] was “unstable in water and dissociates in it”.
With `O=C1c2cc(-c3ccc(OC(F)(F)F)cc3)ccc2OCCN1Cc1ncccn1.O=S(=O)(O)O` [Compound I Form XIV, 4-(pyrimidin-2-ylmethyl)-7-(4-(trifluoromethoxy)phenyl)-3,4-dihydrobenzo[f][1,4]oxazepin-5(2H)-one mono sulfate] the “Relative humidity of deliquescence (DVS)” value ([5]; listed as Compound I FORM XIV) was “around 70 % RH”, the “Relative humidity of deliquescence (DVS)” value [5] was “about 70 % RH” and the “Relative stability of Forms XIV and XV (in words)” value [7] was “the more stable phase in comparison with Compound I FORM XV”.
For `O=C1c2cc(-c3ccc(OC(F)(F)F)cc3)ccc2OCCN1Cc1ncccn1` [Compound I, 4-(pyrimidin-2-ylmethyl)-7-(4-(trifluoromethoxy)phenyl)-3,4-dihydrobenzo[f][1,4]oxazepin-5(2H)-one], the “Late sodium current inhibition (in words)” value [8] is given as “selective late sodium current inhibitor”, the “Solubility” value ([2]; 10% EtOH in water (volume), water activity >0.9, solid found Form I) is given as 0 mg/g and the “Solubility” value ([2]; 10% IPA in water (volume), water activity >0.9, solid found Form III) is given as 0 mg/g. For the same compound, the “Solubility” value ([2]; 20% EtOH in water (volume), water activity 0.8-0.9, solid found Form III) was 0.05 mg/g, the “Solubility” value ([2]; 20% IPA in water (volume), water activity >0.9, solid found Form I) was 0 mg/g and the “Solubility” value ([2]; 25% IPA in water (volume), water activity >0.9, solid found Form III) was 0.5 mg/g. The “Solubility” value ([2]; 30% EtOH in water (volume), water activity 0.8-0.9, solid found Form I) was 0.6 mg/g, the “Solubility (mg/g) (3 weeks)” value ([9]; 2-MeTHF/n-heptane (1:5) v/v, slurry, solid Form I) was 6.7 mg/g and the “Solubility (mg/g) (3 weeks)” value ([9]; Cyclohexane, slurry, solid Form I) was 2.4 mg/g. The “Solubility (mg/g) (1 day)” value ([9]; EtOAc/cyclohexane (1:3) v/v, 1 day, slurry, solid Form I) was 86 mg/g, the “Solubility (mg/g) (3 weeks)” value ([9]; IPA/n-heptane (1:4) v/v, slurry, solid Form I) was 20.0 mg/g and the “Solubility (mg/g) (3 weeks)” value ([9]; IPA, homogenous) was greater than 300 mg/g. For the same compound, the “Solubility (mg/g) (3 weeks)” value ([9]; IPE, slurry, solid Form I) was 21.5 mg/g, the “Solubility (mg/g) (3 weeks)” value ([9]; MTBE/n-heptane (1:2) v/v, slurry, solid Form I) was 5.4 mg/g and the “Solubility (mg/g) (3 weeks)” value ([9]; MTBE, homogenous) was greater than 240 mg/g. The “Solubility (mg/g) (3 weeks)” value ([9]; MeCN, homogenous) was greater than 350 mg/g, the “Solubility (mg/g) (3 weeks)” value ([9]; Toluene/n-heptane (1:3) v/v, slurry, solid Form I) was 7.1 mg/g and the “Solubility (mg/g) (3 weeks)” value ([9]; Toluene, homogenous) was greater than 500 mg/g. The “Solubility (mg/g) (3 weeks)” value ([9]; Water, slurry, solid Form I) was 0 mg/g, the “Solubility (mg/g) (3 weeks)” value ([9]; iPrOAc/n-heptane (1:3) v/v, slurry, solid Form I) was 18.9 mg/g and the “Solubility in organic solvents (in words)” value ([9]; many organic solvents) was “highly soluble”. The “Solubility (mg/g) (3 weeks)” value ([9]; n-Heptane, slurry, solid Form I) was 0.9 mg/g, the “Solubility (mg/g) (3 weeks)” value ([9]; t-amyl alcohol/n-heptane (1:3) v/v, slurry, solid Form I) was 17.5 mg/g and the pKa (pKa) was less than 2.
